# Earlier results in patent US8541223B2, “Lactic acid bacteria having action of lowering blood uric acid level” (Meiji Co., Ltd., priority 2007, dated 2013).
# Tested on: dietary hyperuricemia model animals
# Settings: oral administration of allopurinol; from Food Function Research News vol. 14
smiles,measurement,value
Oc1ncnc2[nH]ncc12 [allopurinol],blood uric acid level in the model animals,significantly suppressed
